Experimental data reported in US8334253B2, “Cosmetic and dermatological formulations of MNTF peptides” (Dermacare Neuroscience Institute, priority 2008, dated 2012).
Peptide text beside a SMILES is read from it. * marks the point of attachment. Palmitoyl = CCCCCCCCCCCCCCCC(=O)*

What was measured:
[1] = tested on: UVA-bleaching of beta-carotene; experiment: UVA bleaching of beta-carotene on forearm skin, Color Index by CHROMAMETER; type: in vivo, human; conditions: 0.1% gel on human forearm, UVA
Protocol: In-vivo method for assessing the protective effects of cosmetic products. Bleaching of carotenoids have been used to evaluate the auto-oxidation activity of natural products. The relative efficacy of scavengers of lipid peroxyl free radicals after application to the skin was assessed by measuring the UVA-bleaching of beta-carotene as a function of the energy exposure.
A CHROMAMETER colorimeter (TM, Minolta Model CR-300) was used to measure changes in color by expressing the color of measured surfaces numerically in L*a*b* color space which is a system recommended by the CIE (Commission Internationale de I'Eclairage) for skin color assessment. In this color space, L* is the luminance and gives the relative brightness from total black (L*=0) to total white (L*=100). The a* value represents the balance between the reds (positive values) and the greens (negative values). The b* value represents the balance between the yellows (positive values) and the blues (negative values). The b* value most closely describes the intensity of the orange color of the β-carotene stain and is in direct correlation with the Color Index, I. The CHROMAMETER provides a means by which oxidative damage caused by free radicals and, conversely, the prevention of oxidation by free radical scavengers, can be measured. Free radical oxidation induced by UVA radiation elicits a bleaching and reduction of color of beta-carotene stain. The bleaching and prevention of bleaching by a test material can be measured by the CHROMAMETER. Bleaching is reported as the change in b* versus UVA Irradiation Energy. It can also be expressed in terms of a Color Index, I, defined as: I=[(bn*−bi*)/(b0*−bi*)]×100 where, bn* is the value of b* measured after n J/cm^2 of irradiation of the area treated with the cosmetic formulation and painted with the β-carotene; b0* is the value of b* after application of the beta-carotene but before irradiation; and bi* is the value of b* before application of the beta-carotene. This index compensates for any effects of skin color on bn* and b0*. Bleaching will cause bn* value and I value (as a percentage) to decrease. Prevention of bleaching will result in higher I values or less reduction in I value when exposed to radiation.
The designated forearm of impaneled subjects was cleansed with a 70% isopropyl alcohol prep pad (Medium, Dynarex) and allowed to dry. Test sites were selected on the volar surface of the designated forearm of each subject, with each test site defined by the open, central area of a self-adhesive ring (Professional ProFoot™ Products, P.P.R. Co, Inc.). The adhesive side of the rings were placed directly on the skin. The rings were used to retain the test material and beta-carotene solution as well as to function as a guide for taking measurements with the CHROMAMETER.
Gel formulations (0.1% Pal-hexapeptide) and (0.1% hexapeptide) were applied to the forearm according to a randomized schedule. Additional sites were treated with a beta-carotene control, a positive control (internal control) and an untreated control. Treatment of the test sites were randomized for each subject.
Prior to application of the test materials or beta-carotene, the initial b* parameter was measured using the CHROMAMETER and recorded for all duplicate test sites of the forearm (Baseline). Approximately 2 mg/cm^2 of each material was applied to the designated test site and spread manually with a finger cot to ensure even distribution. Sites designated as untreated, with or without beta-carotene, remained untreated at this time. The test materials and internal control were allowed to incubate with the skin surface for a period of fifteen (15) minutes. After this incubation period, b* measurements were recorded for all sites (Product Baseline).
A solution of beta-carotene in a mixture of capric and caprylic triglycerides was applied to all treated sites. The b* parameter is again measured and recorded (beta-carotene Baseline). […]

[2] = tested on: hyaluronic acid levels in adult human dermal fibroblast (aHDF) conditioned media; experiment: Hyaluronic acid in fibroblast-conditioned medium (HA-ELISA); type: cell-based; conditions: 96 h
Text: Hyaluronic acid (hyaluronan, HA), a naturally occurring carbohydrate polymer is a key component of connective, epithelial and neural tissues. HA participates in hydrodynamics, movement and proliferation of cells. This test was designed to determine whether a sample of palmitylated and non-palmitylated MNTF hexapeptide has an effect on hyaluronic acid levels in the adult human dermal fibroblast (aHDF) conditioned media.
Adult HDF (facial, passage 2, Cell Applications, San Diego, Calif. cat.#106-05A lot#1392) were plated in high glucose phosphate-free DMEM supplemented with 5% cosmic serum from Hyclone, Utah) at 6,000 cells per well and test materials were added the following day. Test materials were: Pal-Hexapeptide (palmitylated SEQ ID NO:2 as a lyophilized powder labeled APC 341055, lot V08150A1, received from DermaCare Neuroscience Institute), type I sterile water (negative control) and basic fibroblast growth factor (bFGF, positive control). Pal-Hexapeptide was dissolved in water at 20 mg/ml. Final concentrations tested were: 400, 200, 100, 50 and 25 ug/ml for DNP and 5 ng/ml for bFGF (plate 507). After 96 h, cell culture conditioned media were collected and 100 ul aliquotes were used for the HA assay. HA assay was performed using Hyaluronan Enzyme-Linked Immunosorbent Assay Kit (HA-ELISA, cat. #K-1200) from Echelon (Salt Lake City, Utah). The HA output was measured by following the generation of a chromophoric reaction product in 96 well plate, with the use of a BioRad microplate reader at 410 nm and the effect of the test materials was determined using the formula: Absorbance 410 (sample)/Absorbance 410 (Zero HA)×100.
Adult HDF (facial, passage 2, Cell Applications, San Diego, Calif. cat.#106-05A lot#1392) were plated in high glucose phosphate-free DMEM supplemented with 5% cosmic serum from Hyclone, Utah) at 6,000 cells per well and test materials were added the following day. Test materials were: hexapeptide (SEQ ID NO:2 (non-palmitylated), lyophilized powder lot #D294, received from DermaCare Neuroscience Institute), type I sterile water (negative control) and basic fibroblast growth factor (bFGF, positive control). Pal-Hexapeptide was dissolved in water at 20 mg/ml. Final concentrations tested were: 2000, 1000, 500 and 250 ug/ml for hexapeptide and 5 ng/ml for bFGF (plate 507). After 96 h, cell culture conditioned media were collected and 100 ul aliquotes were used for the HA assay. HA assay was performed using Hyaluronan Enzyme-Linked Immunosorbent Assay Kit (HA-ELISA, cat. #K-1200) from Echelon (Salt Lake City, Utah). The HA output was measured by following the generation of a chromophoric reaction product in 96 well plate, with the use of a BioRad microplate reader at 410 nm and the effect of the test materials was determined using the formula: Absorbance 410 (sample)/Absorbance 410 (Zero HA)×100.

## CCCCCCCCCCCCCCCC(=O)N[C@@H](Cc1ccccc1)C(=O)N[C@@H](CO)C(=O)N[C@@H](CCCNC(=N)N)C(=O)N[C@@H](Cc1ccc(O)cc1)C(=O)N[C@@H](C)C(=O)N[C@@H](CCCNC(=N)N)C(=O)O [Pal 6 mer, Pal-FSRYAR] (Palmitoyl-FSRYAR-OH; C-terminus assumed)
[1]
  preventing the bleaching of beta-carotene compared to the beta-carotene control: effective as a free radical scavenger
[2]; 50 ug/ml
  stimulation of hyaluronic acid in the fibroblast-conditioned medium: about 15%
[2]; 100 ug/ml
  stimulation of hyaluronic acid in the fibroblast-conditioned medium: about 15%
[2]; 200 ug/ml
  stimulation of hyaluronic acid in the fibroblast-conditioned medium: 40%
[2]; 400 ug/ml
  stimulation of hyaluronic acid in the fibroblast-conditioned medium: 40%
